Values joined by “and” are separate entries in the source; they are usually repeats but may differ in a detail not shown here. Equal values may be shown once. Read-outs that look alike come from different tables or passages of the source.
Assays:
Cercospora sojina = assay type: cell-based; details: 4 ppm, 7 days after inoculation, relative to compound-free control (100%)
Alternaria solani (wt) = assay type: cell-based
[1] = tested on: Alternaria solani (F129L); experiment: Micro titer plate test against early blight (ALTESO F129L); assay type: cell-based; details: 0.016 ppm, 7 days after inoculation, relative to compound-free control (100%)
Septoria tritici = experiment: Micro titer plate test against leaf blotch on wheat (SEPTTR); assay type: cell-based
[2] = tested on: Phakopsora pachyrhizi (F129L); experiment: Protective control of soybean rust on soybeans (PHAKPA P6); assay type: in vivo
Microdochium nivale = assay type: cell-based; details: 0.016 ppm, 7 days after inoculation, relative to compound-free control (100%)
Pyrenophora teres (wt) = experiment: Micro titer plate test against net blotch on barley (PYRNTE wt); assay type: cell-based; details: 0.25 ppm, 7 days after inoculation, relative to compound-free control (100%)
[3] = tested on: Colletotrichum orbiculare; experiment: Micro titer plate test against anthracnose (COLLLA); assay type: cell-based; details: 0.063 ppm, 7 days after inoculation, relative to compound-free control (100%)
[4] = tested on: Phakopsora pachyrhizi (F129L); experiment: Protective control of soybean rust on soybeans (PHAKPA P2); assay type: in vivo; details: for PHAKPA (F129L) Disease level (%) P2 at 4 ppm: protective, inoculation 2 days after spraying, % diseased leaf area
[5] = tested on: Phakopsora pachyrhizi (F129L); experiment: Protective control of soybean rust on detached soybean leaves (PHAKPA P1 DL), F129L isolate; assay type: in vivo
[6] = tested on: Phakopsora pachyrhizi (wt); experiment: Protective control of soybean rust on detached soybean leaves (PHAKPA P1 DL), Qo inhibitor-sensitive wt isolate; assay type: in vivo
Leptosphaeria nodorum = experiment: Micro titer plate test against wheat leaf spots (LEPTNO); assay type: cell-based; details: 0.063 ppm, 7 days after inoculation, relative to compound-free control (100%)
[7] = 0.016 ppm, 7 days after inoculation, relative to compound-free control (100%)
[8] = 0.25 ppm, 7 days after inoculation, relative to compound-free control (100%)

CO/N=C(/C(=O)OC)c1cccc(C)c1CO/N=C(\OC)c1cccc(C(F)(F)F)c1
Fungal growth (%) CERCSO (Cercospora sojina): 56%

CO/N=C(/C(=O)OC)c1cccc(C)c1CO/N=C(/c1cccc(C)c1)C1CC1 [drawing 957]
Fungal growth (%) ALTESO wt (Alternaria solani (wt); [7]): 100%
Fungal growth (%) CERCSO (Cercospora sojina): 87%
Fungal growth (%) ALTESO F129L [1]: 87%

CNC(=O)/C(=N/OC)c1cccc(C)c1CO/N=C(\OC)c1cccc(C(F)(F)F)c1 [drawing 948]
Fungal growth (%) ALTESO wt (Alternaria solani (wt); [7]): 100%
Fungal growth (%) ALTESO F129L [1]: 87%
Fungal growth (%) SEPTTR (Septoria tritici; [8]): 77%

CNC(=O)/C(=N/OC)c1cccc(C)c1CO/N=C(\OC)c1cccc(C)c1
Fungal growth (%) ALTESO wt (Alternaria solani (wt); [7]): 93%
Fungal growth (%) ALTESO F129L [1]: 95%
Fungal growth (%) SEPTTR (Septoria tritici; [8]): 100%

CO/N=C(/C(=O)OC)c1cccc(C)c1CO/N=C(\SC)c1cccc(C)c1 [drawing 952]
Fungal growth (%) SEPTTR (Septoria tritici; [8]): 61%

CO/N=C(/C(=O)OC)c1cccc(C)c1CO/N=C(/c1cccc(Cl)c1)C1CC1 [drawing 963]
Fungal growth (%) ALTESO wt (Alternaria solani (wt); [7]): 81%
Fungal growth (%) ALTESO F129L [1]: 89%
Fungal growth (%) SEPTTR (Septoria tritici; [8]): 39%

CO/N=C(/C(=O)OC)c1cccc(C)c1CO/N=C(\SC)c1cccc(C)c1 [drawing 955]
Fungal growth (%) ALTESO wt (Alternaria solani (wt); [7]): 67%
Fungal growth (%) CERCSO (Cercospora sojina): 71%
Fungal growth (%) ALTESO F129L [1]: 66%

CO/N=C(/C(=O)OC)c1cccc(C)c1CO/N=C(\C)c1cccc(C)c1 [compound 76]
Fungal growth (%) ALTESO wt (Alternaria solani (wt); [7]): 55%
Fungal growth (%) CERCSO (Cercospora sojina): 28%
PHAKPA (F129L) Disease level (%) P6 at 16 ppm ([2]; protective, inoculation six days after spraying, % diseased leaf area, listed as Ex. 76): 0% and 4%
Fungal growth (%) ALTESO F129L [1]: 37%
Fungal growth (%) SEPTTR (Septoria tritici; [8]): 0%

CNC(=O)/C(=N/OC)c1cccc(C)c1CO/N=C(\SC)c1cccc(Cl)c1 [drawing 970]
Fungal growth (%) CERCSO (Cercospora sojina): 78%

CNC(=O)/C(=N/OC)c1cccc(C)c1CO/N=C(\C)c1cccc(Cl)c1 [compound 157]
Fungal growth (%) ALTESO wt (Alternaria solani (wt); [8]): 27%
Fungal growth (%) MONGNI (Microdochium nivale): 56%
Fungal growth (%) CERCSO (Cercospora sojina): 36%
Fungal growth (%) ALTESO F129L [1]: 57%
Fungal growth (%) PYRNTE wt (Pyrenophora teres (wt)): 54%
Fungal growth (%) COLLLA [3]: 63%
Fungal growth (%) SEPTTR (Septoria tritici; [8]): 20%
PHAKPA (F129L) Disease level (%) P2 at 4 ppm ([4]; listed as Ex. 157): 0% and 1%

CNC(=O)/C(=N/OC)c1cccc(C)c1CO/N=C(\C)c1ccc(Cl)cc1 [compound 158]
PHAKPA P1 DL Disease level (%) Qo I-resistant F129L isolate (100 % F129L) ([5]; test concentration 0.3 ppm): 87%
PHAKPA P1 DL Disease level (%) Qo I-resistant F129L isolate (100 % F129L) ([5]; test concentration 1 ppm): 57%
PHAKPA P1 DL Disease level (%) Qo I-resistant F129L isolate (100 % F129L) ([5]; test concentration 3 ppm): 8%
PHAKPA P1 DL Disease level (%) Qo I-resistant F129L isolate (100 % F129L) ([5]; test concentration 10 ppm): 2%
PHAKPA P1 DL Disease level (%) Qo I-resistant F129L isolate (100 % F129L) ([5]; test concentration 30 ppm): 4%
PHAKPA P1 DL Disease level (%) Qo I-resistant F129L isolate (100 % F129L) ([5]; test concentration 100 ppm): 4%
PHAKPA P1 DL Disease level (%) Qo I-resistant F129L isolate (100 % F129L) ([5]; test concentration 300 ppm): 5%
PHAKPA P1 DL Disease level (%) Qo I-sensitive wt isolate (0 % F129L) ([6]; test concentration 0.3 ppm): 38%
PHAKPA P1 DL Disease level (%) Qo I-sensitive wt isolate (0 % F129L) ([6]; test concentration 1 ppm): 7%
PHAKPA P1 DL Disease level (%) Qo I-sensitive wt isolate (0 % F129L) ([6]; test concentration 3 ppm): 2%
PHAKPA P1 DL Disease level (%) Qo I-sensitive wt isolate (0 % F129L) ([6]; test concentration 10 ppm): 1%
PHAKPA P1 DL Disease level (%) Qo I-sensitive wt isolate (0 % F129L) ([6]; test concentration 30 ppm): 4%
PHAKPA P1 DL Disease level (%) Qo I-sensitive wt isolate (0 % F129L) ([6]; test concentration 100 ppm): 5%
PHAKPA P1 DL Disease level (%) Qo I-sensitive wt isolate (0 % F129L) ([6]; test concentration 300 ppm): 4%
Fungal growth (%) ALTESO wt (Alternaria solani (wt); [7]): 66%
Fungal growth (%) MONGNI (Microdochium nivale): 71%
% PHAKPA (F129L) Disease level P6 at 4 ppm ([2]; protective P6, 4 ppm, soybean rust F129L isolate): 2%
% PHAKPA (F129L) Disease level P6 at 16 ppm ([2]; protective P6, 16 ppm, soybean rust F129L isolate): 0%
PHAKPA (F129L) Disease level (%) P6 at 4 ppm ([2]; protective, inoculation six days after spraying, 4 ppm, % diseased leaf area): 4%
Fungal growth (%) ALTESO F129L [1]: 79%
% PHAKPA (F129L) Disease level P2 at 4 ppm ([4]; protective P2, 4 ppm, soybean rust F129L isolate): 0%
% PHAKPA (F129L) Disease level P2 at 16 ppm ([4]; protective P2, 16 ppm, soybean rust F129L isolate): 0%
PHAKPA (F129L) Disease level (%) P2 at 4 ppm [4]: 1%

Cc1cccc(-n2nnn(C)c2=O)c1COc1ccn(-c2ccc(Cl)cc2)n1 [drawing 934, reference compound]
PHAKPA P1 DL Disease level (%) Qo I-resistant F129L isolate (100 % F129L) ([5]; test concentration 0.3 ppm): 88%
PHAKPA P1 DL Disease level (%) Qo I-resistant F129L isolate (100 % F129L) ([5]; test concentration 1 ppm): 90%
PHAKPA P1 DL Disease level (%) Qo I-resistant F129L isolate (100 % F129L) ([5]; test concentration 3 ppm): 95%
PHAKPA P1 DL Disease level (%) Qo I-resistant F129L isolate (100 % F129L) ([5]; test concentration 10 ppm): 92%
PHAKPA P1 DL Disease level (%) Qo I-resistant F129L isolate (100 % F129L) ([5]; test concentration 30 ppm): 90%
PHAKPA P1 DL Disease level (%) Qo I-resistant F129L isolate (100 % F129L) ([5]; test concentration 100 ppm): 65%
PHAKPA P1 DL Disease level (%) Qo I-resistant F129L isolate (100 % F129L) ([5]; test concentration 300 ppm): 52%

Cc1cccc(-n2nnn(C)c2=O)c1COc1ccn(-c2ccc(Cl)cc2)n1 [drawing 930]
Fungal growth (%) ALTESO wt (Alternaria solani (wt); [7]): 98%
Fungal growth (%) MONGNI (Microdochium nivale): 97%
Fungal growth (%) ALTESO F129L [1]: 100%

CO/N=C(/C(=O)OC)c1cccc(C)c1CO/N=C(\SC)c1cccc(Cl)c1 [drawing 962]
Fungal growth (%) ALTESO wt (Alternaria solani (wt); [7]): 94%
Fungal growth (%) ALTESO F129L [1]: 100%
Fungal growth (%) SEPTTR (Septoria tritici; [8]): 39%

CNC(=O)/C(=N/OC)c1cccc(C)c1CO/N=C(\C)c1cccc(C(F)(F)F)c1 [compound 8]
Fungal growth (%) ALTESO wt (Alternaria solani (wt)): 56%
Fungal growth (%) ALTESO F129L ([1]; listed as Ex. 8): 55% and 52%
Fungal growth (%) SEPTTR (Septoria tritici): 57%

CO/N=C(/C(=O)OC)c1cccc(C)c1CO/N=C(\C)c1cccc(OC(F)(F)F)c1 [drawing 936]
Fungal growth (%) ALTESO wt (Alternaria solani (wt); [7]): 94%
Fungal growth (%) CERCSO (Cercospora sojina): 33%

CO/N=C(/C(=O)OC)c1cccc(C)c1CO/N=C(/c1cccc(Cl)c1)C1CC1 [drawing 966]
Fungal growth (%) CERCSO (Cercospora sojina): 61%

CO/N=C(/C(=O)OC)c1cccc(C)c1CO/N=C(/c1cccc(C)c1)C1CC1 [drawing 953]
Fungal growth (%) SEPTTR (Septoria tritici; [8]): 89%

CNC(=O)/C(=N/OC)c1cccc(C)c1CO/N=C(\SC)c1cccc(Cl)c1 [drawing 968]
Fungal growth (%) ALTESO wt (Alternaria solani (wt); [8]): 43%
Fungal growth (%) ALTESO F129L [1]: 90%
Fungal growth (%) SEPTTR (Septoria tritici; [8]): 59%

CNC(=O)/C(=N/OC)c1cccc(C)c1CO/N=C(\SC)c1cccc(C(F)(F)F)c1
Fungal growth (%) CERCSO (Cercospora sojina): 66%
Fungal growth (%) ALTESO F129L [1]: 85%

CNC(=O)/C(=N/OC)c1cccc(C)c1CO/N=C(\OC)c1cccc(C(F)(F)F)c1 [drawing 950]
Fungal growth (%) CERCSO (Cercospora sojina): 60%

CO/N=C(/C(=O)OC)c1cccc(C)c1CO/N=C(\C)c1cccc(Cl)c1 [compound 153]
Fungal growth (%) ALTESO wt (Alternaria solani (wt); [7]): 71%
Fungal growth (%) MONGNI (Microdochium nivale): 75%
Fungal growth (%) CERCSO (Cercospora sojina): 26%
PHAKPA (F129L) Disease level (%) P6 at 16 ppm ([2]; protective, inoculation six days after spraying, % diseased leaf area, listed as Ex. 153): 1% and 5%
Fungal growth (%) ALTESO F129L [1]: 68%
Fungal growth (%) PYRNTE wt (Pyrenophora teres (wt)): 31%
Fungal growth (%) COLLLA [3]: 55%
Fungal growth (%) SEPTTR (Septoria tritici; [8]): 0%
Fungal growth (%) LEPTNO (Leptosphaeria nodorum): 55%

CO/N=C(/C(=O)OC)c1cccc(C)c1CO/N=C(\SC)c1cccc(Cl)c1 [drawing 965]
Fungal growth (%) CERCSO (Cercospora sojina): 62%

CO/N=C(/C(=O)OC)c1cccc(C)c1CO/N=C(\C)c1cccc(C(F)(F)F)c1 [compound 9]
Fungal growth (%) ALTESO wt (Alternaria solani (wt); [7]): 73%
Fungal growth (%) CERCSO (Cercospora sojina): 11%
PHAKPA (F129L) Disease level (%) P6 at 16 ppm ([2]; protective, inoculation six days after spraying, % diseased leaf area, listed as Ex. 9): 4% and 1%

CNC(=O)/C(=N/OC)c1cccc(C)c1CO/N=C(/c1cccc(C)c1)C1CC1
Fungal growth (%) ALTESO wt (Alternaria solani (wt); [7]): 89%
Fungal growth (%) ALTESO F129L [1]: 93%
Fungal growth (%) SEPTTR (Septoria tritici; [8]): 87%

CO/N=C(/C(=O)OC)c1cccc(C)c1CO/N=C(\OC)c1cccc(C)c1
Fungal growth (%) ALTESO wt (Alternaria solani (wt); [7]): 93%
Fungal growth (%) CERCSO (Cercospora sojina): 67%
Fungal growth (%) ALTESO F129L [1]: 81%
